In patent US12084434B2 (Scorpion Therapeutics, Inc., priority 2021, dated 2024) one finds IC50 data, which are given here for 19 molecules.

Read-outs that look alike come from different tables or passages of the source.

This assay deals with T47D pAKT (S473), PI3Kα H1047R mutation present. The assay is described as follows: HTRF pAKT-T47D.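 Note: assay medium was RPMI with 10% FBS and 0.2 units/ml bovine insulin, without phenol red.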 For orientation: TR-FRET usually uses a lanthanide donor and a delayed reading to cut background.
[1] abbreviates: Homo sapiens, T47D, 1 h, read-out: T47D pAKT IC50 (nM), T47D.1 cells, pAKT (S473) HTRF, 1 hour.
The mark [2] stands for this setting: read-out: T47D pAKT IC50, T47D.1 cells, pAKT (S473) HTRF, 1 hour.

As to `Cc1c([C@@H](NC(=O)Nc2cnc(N3CC(OC(F)F)C3)nc2)C(C)C)oc2ccc(F)cc12` [Compound 167, 1-{2-[3-(difluoromethoxy)azetidin-1-yl]pyrimidin-5-yl}-3-[(1S)-1-(5-fluoro-3-methyl-1-benzofuran-2-yl)-2-methylpropyl]urea], the half-inhibitory concentration (IC50) under setting [1] is less than 1000 nM.

For `Cc1c([C@@H](NC(=O)Nc2cnc(N3CC4(COC4)C3)nc2)C(F)(F)F)oc2ccc(F)cc12` [Compound 168, (R)-1-(2-(2-oxa-6-azaspiro[3.3]heptan-6-yl)pyrimidin-5-yl)-3-(2,2,2-trifluoro-1-(5-fluoro-3-methylbenzofuran-2-yl)ethyl)urea], the IC50 under setting [1] is less than 1000 nM.

Turning to `Cc1c([C@@H](NC(=O)Nc2cnc(N3C[C@H](O)[C@H]3C)nc2)C(F)(F)F)oc2ccc(F)cc12` [Compound 169], the IC50 under setting [1] is less than 1000 nM.

For the molecule `Cc1c([C@@H](NC(=O)Nc2cnc(N3C[C@@H](O)[C@@H]3C)nc2)C(F)(F)F)oc2ccc(F)cc12` [Compound 170], under setting [1], the IC50 is less than 1000 nM.

Take `C[C@@H]1[C@@H](O)CN1c1ncc(NC(=O)NC(c2cc3cc(F)cc(F)c3o2)C(F)(F)F)cn1` (stereo partly drawn) [Compound 173, 3-[1-(5,7-difluoro-1-benzofuran-2-yl)-2,2,2-trifluoroethyl]-1-{2-[(2R,3S)-3-hydroxy-2-methylazetidin-1-yl]pyrimidin-5-yl}urea]: the IC50 under setting [2] was more than 5000 nM.

Consider `C[C@@H]1[C@@H](O)CN1c1ncc(NC(=O)NC(c2cc3cc(F)cc(F)c3o2)C(F)(F)F)cn1` (stereo partly drawn) [Compound 174, 3-[1-(5,7-difluoro-1-benzofuran-2-yl)-2,2,2-trifluoroethyl]-1-{2-[(2R,3S)-3-hydroxy-2-methylazetidin-1-yl]pyrimidin-5-yl}urea], for which the IC50 under setting [2] is less than 1000 nM.

For `Cc1c(C(NC(=O)Nc2cnc(N3C[C@@H](O)[C@@H]3C)nc2)C(F)(F)F)oc2c(F)cc(F)cc12` (stereo partly shown) [Compound 175], the IC50 under setting [2] was less than 1000 nM.

Consider `Cc1c(C(NC(=O)Nc2cnc(N3C[C@@H](O)[C@@H]3C)nc2)C(F)(F)F)oc2c(F)cc(F)cc12` (stereo partly shown) [Compound 176], for which the IC50 under setting [2] is more than 5000 nM.

On to `Cc1c(C(NC(=O)Nc2ccc(N)nc2)C(F)(F)F)oc2c(F)cc(F)cc12` (stereo not shown) [Compound 181], for which the half-maximal inhibitory concentration (IC50) under setting [2] was more than 5000 nM.

As for `Cc1c(C(NC(=O)Nc2ccc(N)nc2)C(F)(F)F)oc2c(F)cc(F)cc12` (stereo not shown) [Compound 182], under setting [2], the IC50 is less than 1000 nM.

As for `Cc1c([C@@H](NC(=O)Nc2cnc(NCC(C)(C)O)nc2)C(F)(F)F)oc2c(F)cc(F)cc12` [Compound 183], the IC50 under setting [2] was less than 1000 nM.

As to `Cc1c([C@H](NC(=O)Nc2cnc(NCC(C)(C)O)nc2)C(F)(F)F)oc2c(F)cc(F)cc12` [Compound 184], the half-inhibitory concentration (IC50) under setting [2] was more than 5000 nM.

With `Cc1c([C@H](NC(=O)Nc2ccc3[nH]ncc3c2)C(F)(F)F)oc2c(F)cc(F)cc12` [Compound 193, 3-[(1S)-1-(5,7-difluoro-3-methyl-1-benzofuran-2-yl)-2,2,2-trifluoroethyl]-1-(1H-indazol-5-yl)urea], the IC50 under setting [1] is more than 5000 nM.

With `Cc1c([C@@H](NC(=O)Nc2ccc3[nH]ncc3c2)C(F)(F)F)oc2c(F)cc(F)cc12` [Compound 194, 3-[(1R)-1-(5,7-difluoro-3-methyl-1-benzofuran-2-yl)-2,2,2-trifluoroethyl]-1-(1H-indazol-5-yl)urea], under setting [1], the half-maximal inhibitory concentration (IC50) was less than 1000 nM.

For the molecule `Cc1c([C@@H](NC(=O)Nc2cnc(N3CC(C(C)(C)O)C3)nc2)C(F)(F)F)oc2c(F)cc(F)cc12` [Compound 205], under setting [1], the half-maximal inhibitory concentration (IC50) was less than 1000 nM.

`Cc1c([C@H](NC(=O)Nc2cnc(N3CC(C(C)(C)O)C3)nc2)C(F)(F)F)oc2c(F)cc(F)cc12` [Compound 206]: the IC50 under setting [1] is more than 5000 nM.

In the case of `Cc1c([C@H](NC(=O)Nc2cnc(N3CC[C@@H](O)C3)nc2)C(F)(F)F)oc2c(F)cc(F)cc12` [Compound 207], the IC50 under setting [1] was more than 5000 nM.

Regarding `Cc1c([C@@H](NC(=O)Nc2cnc(N3CC[C@@H](O)C3)nc2)C(F)(F)F)oc2c(F)cc(F)cc12` [Compound 208], the concentration for half-maximal inhibition (IC50) under setting [1] was less than 1000 nM.

Turning to `Cc1c([C@@H](NC(=O)Nc2cnc(N3CC[C@H](O)C3)nc2)C(F)(F)F)oc2c(F)cc(F)cc12` [Compound 209], the half-inhibitory concentration (IC50) under setting [1] is less than 1000 nM.

A word on the IC50: it is the concentration needed to halve the response being measured.
